The text below walks through data of ChEMBL document CHEMBL2396558, “Orthogonal chemistry for the synthesis of thiocoraline-triostin hybrids. Exploring their structure-activity relationship” (2013).

Holding throughout (type): functional
The subject of test [1] is A549. In words: Cytotoxicity against human A549 cells after 72 hrs by sulforhodamine B assay. To be noted: A549, 72 h; for CC50: read-out: LC50 (the source's name). On the technique in general: In SRB staining, fixed cells bind dye roughly in proportion to their protein.
Test [2] has as its system MDA-MB-231. In words: Cytotoxicity against human MDA-MB-231 cells after 72 hrs by sulforhodamine B assay. To be noted: MDA-MB-231, 72 h.
For test [3], the system named is HT-29. In words: Cytotoxicity against human HT-29 cells after 72 hrs by sulforhodamine B assay. As to conditions: HT-29, 72 h; for CC50: read-out: LC50 (the source's name).

Molecules are shown by their SMILES. Positions of bridges follow the written chain, without caps; N, C: chain ends. Non-standard residues stand in square brackets, D forms with d. Residues, ends and D or L forms follow the SMILES beside them. Chains are numbered I, II in the order given. *: point of attachment. Quinoxaline2carbonyl = O=C(c1cnc2ccccc2n1)*; NMeV = CN[C@H](C(=O)O)C(C)C; NMeC = CN[C@@H](CS)C(=O)O

As usually defined, the GI50 is the concentration at which growth is held to half of that of the control. In general, TGI refers to the concentration giving total growth inhibition. Consider `CSC[C@H]1C(=O)N(C)C[C@@H](NC(=O)c2cnc3ccccc3n2)C(=O)NCC(=O)N(C)[C@H]2CSSC[C@@H](C(=O)N1C)N(C)C(=O)CNC(=O)[C@H](NC(=O)c1cnc3ccccc3n1)CN(C)C(=O)[C@H](CSC)N(C)C2=O`, for which, in test [1], the GI50 is 0.0713 µM, the TGI is more than 8.92 µM and the CC50 was more than 8.92 µM. In test [2], this compound gave a 50% growth inhibitory concentration (GI50) of 0.0473 µM, an LC50 (concentration killing 50% of cells) of more than 8.92 µM and a TGI of 1.43 µM. Besides, in test [3], the concentration for 50% growth inhibition (GI50) is 0.357 µM, the TGI was more than 8.92 µM and the CC50 is more than 8.92 µM.

Consider `CSC[C@H]1C(=O)SC[C@@H](NC(=O)c2nc3ccccc3cc2O)C(=O)NCC(=O)N(C)[C@H]2SSC[C@@H](C(=O)N1C)N(C)C(=O)CNC(=O)[C@H](NC(=O)c1nc3ccccc3cc1O)CSC(=O)[C@H](CSC)N(C)C2=O` [THIOCORALINE], for which, in test [1], growth was halved (GI50) at 0.00622 µM, the TGI was found to be 0.0242 µM and the CC50 came to 0.095 µM. In test [2], this compound returned a 50% growth inhibitory concentration (GI50) of 0.00207 µM, an LC50 (concentration killing 50% of cells) of 0.0346 µM and a total growth inhibition concentration (TGI) of 0.0095 µM. Also, the CC50 in test [3] was 0.138 µM.

On to `CN1C[C@@H](NC(=O)c2nc3ccccc3cc2O)C(=O)NCC(=O)N(C)[C@H]2CSSC[C@@H](C(=O)N(C)[C@@H](CN)C1=O)N(C)C(=O)CNC(=O)[C@H](NC(=O)c1nc3ccccc3cc1O)CN(C)C(=O)[C@H](CN)N(C)C2=O`, for which, in test [1], halving of growth (GI50) required 8.95 µM, total growth inhibition (TGI) required 8.95 µM and the CC50 is 8.95 µM. In test [2], it took 8.95 µM to inhibit growth by half (GI50), the LC50 (concentration killing 50% of cells) was 8.95 µM and the total growth inhibition concentration (TGI) worked out at 8.95 µM. In test [3], growth was halved (GI50) at 8.95 µM, the TGI was 8.95 µM and the CC50 was found to be 8.95 µM.

With `COCCOCCOCC(=O)NCC[C@H]1C(=O)N(C)C[C@@H](NC(=O)c2nc3ccccc3cc2O)C(=O)NCC(=O)N(C)[C@H]2CSSC[C@@H](C(=O)N1C)N(C)C(=O)CNC(=O)[C@H](NC(=O)c1nc3ccccc3cc1O)CN(C)C(=O)[C@H](CCNC(=O)COCCOCCOC)N(C)C2=O`, in test [1], the 50% growth inhibitory concentration (GI50) was more than 6.96 µM, the concentration for total growth inhibition (TGI) is more than 6.96 µM and the CC50 was more than 6.96 µM. In test [2], this compound gave a concentration for 50% growth inhibition (GI50) of more than 6.96 µM, an LC50 (concentration killing 50% of cells) of more than 6.96 µM and a TGI of more than 6.96 µM. In addition, in test [3], the GI50 was more than 6.96 µM, the total growth inhibition concentration (TGI) is more than 6.96 µM and the CC50 is more than 6.96 µM.

With `COCCOCCOCC(=O)NC[C@H]1C(=O)N(C)C[C@@H](NC(=O)c2nc3ccccc3cc2O)C(=O)NCC(=O)N(C)[C@H]2CSSC[C@@H](C(=O)N1C)N(C)C(=O)CNC(=O)[C@H](NC(=O)c1nc3ccccc3cc1O)CN(C)C(=O)[C@H](CNC(=O)COCCOCCOC)N(C)C2=O`, in test [1], the GI50 is more than 7.09 µM, the total growth inhibition concentration (TGI) was more than 7.09 µM and the CC50 was more than 7.09 µM. In test [2], the concentration for 50% growth inhibition (GI50) is more than 7.09 µM, the LC50 (concentration killing 50% of cells) is more than 7.09 µM and the total growth inhibition concentration (TGI) is more than 7.09 µM. Besides, in test [3], the GI50 is more than 7.09 µM, the TGI is more than 7.09 µM and the CC50 is more than 7.09 µM.

With `CC(C)[C@H]1C(=O)OC[C@@H](NC(=O)c2cnc3ccccc3n2)C(=O)N[C@@H](C)C(=O)N(C)[C@H]2CSSC[C@@H](C(=O)N1C)N(C)C(=O)[C@H](C)NC(=O)[C@H](NC(=O)c1cnc3ccccc3n1)COC(=O)[C@H](C(C)C)N(C)C2=O` [TRIOSTIN] (I: Quinoxaline2carbonyl-[dS]A[NMeC][NMeV] / II: Quinoxaline2carbonyl-[dS]A[NMeC][NMeV]; ester I:1-II:C, I:C-II:1; disulfide I:3-II:3), in test [1], the GI50 stood at 0.34 µM, the TGI stood at 1.66 µM and the CC50 is more than 9.2 µM. Also, in test [2], it took 0.202 µM to inhibit growth by half (GI50), the LC50 (concentration killing 50% of cells) came to 1.56 µM and the concentration for total growth inhibition (TGI) turned out to be 0.515 µM. For the same compound, in test [3], it took 0.23 µM to inhibit growth by half (GI50), net growth stopped (TGI) at 2.85 µM and the CC50 was more than 9.2 µM.

`CC(C)[C@H]1C(=O)OC[C@@H](NC(=O)c2nc3ccccc3cc2O)C(=O)N[C@@H](C)C(=O)N(C)[C@H]2CSSC[C@@H](C(=O)N1C)N(C)C(=O)[C@H](C)NC(=O)[C@H](NC(=O)c1nc3ccccc3cc1O)COC(=O)[C@H](C(C)C)N(C)C2=O`: in test [1], the GI50 was more than 8.92 µM, the TGI is more than 8.92 µM and the CC50 was more than 8.92 µM. In test [2], this compound yielded a GI50 of more than 8.92 µM, an LC50 (concentration killing 50% of cells) of more than 8.92 µM and a TGI of more than 8.92 µM. Further, in test [3], the concentration for 50% growth inhibition (GI50) was more than 8.92 µM, the TGI is more than 8.92 µM and the CC50 is more than 8.92 µM.

For the compound `CC(C)[C@H]1C(=O)N(C)C[C@@H](NC(=O)c2cnc3ccccc3n2)C(=O)N[C@@H](C)C(=O)N(C)[C@H]2CSSC[C@@H](C(=O)N1C)N(C)C(=O)[C@H](C)NC(=O)[C@H](NC(=O)c1cnc3ccccc3n1)CN(C)C(=O)[C@H](C(C)C)N(C)C2=O`, in test [1], the GI50 is more than 8.98 µM, the TGI was more than 8.98 µM and the CC50 is more than 8.98 µM. In test [2], this compound returned a GI50 of 5.93 µM, an LC50 (concentration killing 50% of cells) of more than 8.98 µM and a concentration for total growth inhibition (TGI) of more than 8.98 µM. In test [3], the GI50 was found to be 8.44 µM, the total growth inhibition concentration (TGI) is more than 8.98 µM and the CC50 is more than 8.98 µM.

Take `CSC[C@H]1C(=O)N(C)C[C@@H](NC(=O)c2nc3ccccc3cc2O)C(=O)NCC(=O)N(C)[C@H]2CSSC[C@@H](C(=O)N1C)N(C)C(=O)CNC(=O)[C@H](NC(=O)c1nc3ccccc3cc1O)CN(C)C(=O)[C@H](CSC)N(C)C2=O`: in test [1], growth was halved (GI50) at 0.00339 µM, net growth stopped (TGI) at 0.02 µM and the CC50 came out at 0.165 µM. For the same compound, in test [2], the 50% growth inhibitory concentration (GI50) amounted to 0.00408 µM, the LC50 (concentration killing 50% of cells) was determined as 0.373 µM and net growth stopped (TGI) at 0.0426 µM. Besides, in test [3], the CC50 was determined as 0.747 µM.

As for `CN1C[C@@H](NC(=O)c2nc3ccccc3cc2O)C(=O)NCC(=O)N(C)[C@H]2CSSC[C@@H](C(=O)N(C)[C@@H](CCN)C1=O)N(C)C(=O)CNC(=O)[C@H](NC(=O)c1nc3ccccc3cc1O)CN(C)C(=O)[C@H](CCN)N(C)C2=O`, in test [1], halving of growth (GI50) required 8.95 µM, total growth inhibition (TGI) required 8.95 µM and the CC50 worked out at 8.95 µM. In test [2], this compound came in with a GI50 of 8.95 µM, an LC50 (concentration killing 50% of cells) of 8.95 µM and a TGI of 8.95 µM. Also, in test [3], the GI50 worked out at 8.95 µM, the TGI is 8.95 µM and the CC50 was determined as 8.95 µM.

`CSC[C@H]1C(=O)OC[C@@H](NC(=O)c2nc3ccccc3cc2O)C(=O)NCC(=O)N(C)[C@H]2CSSC[C@@H](C(=O)N1C)N(C)C(=O)CNC(=O)[C@H](NC(=O)c1nc3ccccc3cc1O)COC(=O)[C@H](CSC)N(C)C2=O`: in test [1], it took 0.311 µM to inhibit growth by half (GI50), net growth stopped (TGI) at 2.75 µM and the CC50 was found to be 7.91 µM. For the same compound, in test [2], the GI50 turned out to be 0.462 µM, the LC50 (concentration killing 50% of cells) worked out at 6.4 µM and the TGI is 2.75 µM. For the same compound, in test [3], it took 0.4 µM to inhibit growth by half (GI50), net growth stopped (TGI) at 3.55 µM and the CC50 is 7.55 µM.
